Data as given in US8017128B2, “Cosmetic active ingredient composed of arginine ferrulate and a microalgae extract and its uses” (priority 2006, dated 2011).

Key:
[1] = system: thioredoxin reductase (TrxR); conditions: donor
Description: A volume corresponding to 50 μg of proteins of each cell extract is incubated with a mixture of HEPES, 80 mM pH 7.5, 0.9 mg/ml of NADPH, EDTA 6 mM, 2 mg/ml of insulin and 10 μM of Trx of E. coli, at 37° C. for 20 minutes in a final volume of 120 μL. The reaction is stopped by the addition of 500 μL of DTNB (dithio-bis-nitrobenzoic acid) (0.4 mg/ml) in guanidine hydrochloride 6 M/Tris-Cl 0.2 M (pH 8.0). A control sample containing everything except the Trx is incubated and treated in the same way as each sample.
The absorbance at 412 nm is measured and the value of the control subtracted from the value of the corresponding absorbance of the sample.
A standard curve is prepared using TrxR from purified calf thymus, with a defined specific activity.

thioredoxin = conditions: donor; NAC (10 mM) alone
glycated proteins = experiment: Reduction in glycated proteins in treated cells; assay type: cell-based

With C=CC=O [Acrolein] the “TrxR activity, % change vs control” value ([1]; Acrolein 25 μM alone) was −37% and the “TrxR Activity” value ([1]; Acrolein 25 μM in the culture medium, alone) was 130.8 ± 11.4 ng of TrxR/mg of total proteins.

With CC(=O)N[C@@H](CS)C(=O)O [NAC, N-Acetyl-cysteine] the “Thioredoxin Level” value (thioredoxin) was 59.8 ± 8.1 ng of Trx/mg of total proteins and the “Thioredoxin level, % change vs control” value (thioredoxin) was −32%.

COc1cc(/C=C/C(=O)O)ccc1O [arginine ferulate] was tested, and the “content required to inhibit 50% of the formation of glycated proteins in the cells” value (glycated proteins) was 0.005%-0.02%.
